No end group written: not given here.
How the values were obtained:
[1] = target: T1, rat PTH-1 receptor (endogenous, ROS 17/2.8 cells) (Rattus norvegicus, UniProt P25961); assay: cAMP response in osteoblastic ROS 17/2.8 cells; format: cell-based; conditions: for Emax: ROS 17/2.8 cells
T1 construct: The rat osteoblastic cell line ROS 17/2.8; endogenous in cells; host or cells: ROS 17/2.8 rat osteoblastic cells
T1 sequence (P25961 27-591): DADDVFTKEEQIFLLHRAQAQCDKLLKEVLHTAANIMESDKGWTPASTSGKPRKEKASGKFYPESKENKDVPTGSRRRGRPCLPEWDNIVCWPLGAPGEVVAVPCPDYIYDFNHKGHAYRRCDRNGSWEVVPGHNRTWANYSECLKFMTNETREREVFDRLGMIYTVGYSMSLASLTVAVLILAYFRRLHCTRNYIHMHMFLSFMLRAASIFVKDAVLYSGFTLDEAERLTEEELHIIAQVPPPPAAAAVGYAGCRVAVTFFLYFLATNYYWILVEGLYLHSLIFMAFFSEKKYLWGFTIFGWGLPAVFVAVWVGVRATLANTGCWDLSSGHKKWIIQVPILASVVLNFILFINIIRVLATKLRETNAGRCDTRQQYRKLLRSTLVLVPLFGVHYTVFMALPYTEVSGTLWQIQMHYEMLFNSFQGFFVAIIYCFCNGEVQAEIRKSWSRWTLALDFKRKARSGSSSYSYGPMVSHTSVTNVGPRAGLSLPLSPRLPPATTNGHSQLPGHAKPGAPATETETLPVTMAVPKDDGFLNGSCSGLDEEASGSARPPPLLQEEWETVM
Experimental: The rat osteoblastic cell line ROS 17/2.8 (Majeska, R. J., et al, Endocrinology 107:1494-1503 (1980)) expresses endogenous PTH-1 receptors at levels of 80,000 per cell and the human osteoblastic cell line, SAOS-2, express endogenous PTH-1 receptors at levels of ˜30,000 per cell.
(§1) Stimulation of cells with peptide analogs was performed in 24-well plates. Cells were rinsed with 0.5 mL of binding buffer and treated with 200 μL of cAMP assay buffer (Dulbecco's modified Eagle's medium containing 2 mM 3-isobutyl-1-methylxanthine, 1 mg/mL bovine serum albumin, 35 mM Hepes-NaOH, pH 7.4) and 100 μL of binding buffer containing varying amounts of peptide analog (final volume=300 μL). The medium was removed after incubation for 1 h at room temperature, and the cells were frozen (−80° C.), lysed with 0.5 mL 50 mM HCl, and refrozen (−80° C.). The cAMP content of the diluted lysate was determined by radioimmunoassay. Where possible, cAMP EC50 and Maximum response values were determined using nonlinear regression (see below).
All calculations were performed using Microsoft Excel. Nonlinear regression analysis of cAMP stimulation data was performed using parameters, defined as the Minimum, Maximum, Emax, midpoint (EC50), and slope of the response curve. The predicted response (yp) for a given dose (x) of peptide was calculated using the following equation: yp=Min+[(Max−Min)/(1+(EC50/x)^slope)]. The initial parameter values were estimated from the primary data, and the Excel “Solver function” was then used to vary the four parameters in order to minimize the differences between the predicted and actual responses (least-squares method) (Bowen, W., & Jerman, J., Trends in Pharmacol. Sci. 16:413-417 (1995)). The statistical significance between two data sets was determined using a one-tailed Student's t-test, assuming unequal variances for the two sets.

hPTH-2 Receptor = target: T2, hPTH-2 Receptor (Homo sapiens, UniProt P49190); assay: cAMP stimulation in LLC-P2R-22 cells (LLC-PK1 stably transfected with hPTH-2 receptor); format: cell-based; conditions: for EC50 Log M / Emax: LLC-P2R-22 cells (hPTH-2 Receptor)
T2 construct: expressed in transfected cells; host or cells: LLC-PK1 porcine kidney cells (clone given as hPR2-20, hPR2-22, LLC-P2R-22 or P2R-22)
T2 sequence (P49190 25-550): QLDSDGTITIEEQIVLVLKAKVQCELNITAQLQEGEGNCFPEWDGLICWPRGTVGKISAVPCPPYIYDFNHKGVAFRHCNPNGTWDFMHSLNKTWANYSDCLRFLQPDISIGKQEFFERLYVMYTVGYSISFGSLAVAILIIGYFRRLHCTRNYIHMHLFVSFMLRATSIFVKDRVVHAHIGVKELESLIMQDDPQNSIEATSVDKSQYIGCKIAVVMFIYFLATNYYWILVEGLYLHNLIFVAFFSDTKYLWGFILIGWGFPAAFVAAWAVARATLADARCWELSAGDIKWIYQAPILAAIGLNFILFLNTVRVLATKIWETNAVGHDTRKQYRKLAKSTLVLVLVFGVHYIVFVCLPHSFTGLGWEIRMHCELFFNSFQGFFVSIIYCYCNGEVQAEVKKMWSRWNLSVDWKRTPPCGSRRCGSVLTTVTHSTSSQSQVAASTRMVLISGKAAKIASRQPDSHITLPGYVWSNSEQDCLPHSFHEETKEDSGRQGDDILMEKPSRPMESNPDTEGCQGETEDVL
Excerpt: Stably transfected derivatives of the porcine kidney cell line LLC-PK1, HKRK-B7 (Takasu, H., et al., J. Bone Miner. Res. 14:11-20 (1999)) and hPR2-20, express the human PTH-1 and human PTH-2 receptors respectively. The HKRK-B7 LLC-PK1 cell line expresses the hPTH-1 receptor at ˜1×10^6 receptors/cell (Takasu, H., et al., J. Bone Miner. Res. 14:11-20 (1999)), and the hPR2-22 LLC-PK1 cell line expresses the hPTH-2 receptor at ˜0.8×10^6 receptors/cell (provided by H. Takasu and F. R. Bringhurst, Endocrine Unit, Massachusetts General Hospital).
as §1
Intracellular cAMP accumulation may be measured as described by Abou-Samra et al., J. Biol. Chem. 262:1129, 1986) or other methods known to those of skill in the art. Intracellular cAMP is extracted by thawing the cells in 1 ml of 50 mM HCl and analyzed by a specific radioimmunoassay using an anti-cAMP antibody (e.g., Sigma, St. Louis, Mo.). A cAMP analog (2′-O-monosuccinyl-adenosine 3′:5′-cyclic monophosphate tyrosyl methyl ester, obtained from Sigma) which is used as a tracer for cAMP is iodinated by the chloramine T method. Free iodine is removed by adsorbing the iodinated cAMP analog onto a C18 Sep-pak cartridge (Waters, Milford, Mass.). After washing with dH2O, the iodinated cAMP analog is eluted from the Sep-pak Cartridge with 40% acetonitrille (ACN) and 0.1% trifluoroacetic acid (TFA). The iodinated cAMP analog is lyophilized, reconstituted in 1 ml 0.1% TFA, and injected into a C18 reverse phase HPLC column (Waters). The column is equilibrated with 10% ACN in 0.1% TFA, and eluted with gradient of 10-30% ACN in 0.1% TFA. This allows separation of the mono-iodinated cAMP analog from the non-iodinated cAMP analog. The tracer is stable for up to 4 months when stored at −20° C. The standard used for the assay, adenosine 3′:5′-cyclic monophosphate, is purchased from Sigma. Samples (1-10 µl of HCl extracts) or standards (0.04-100 fmol/tube) are diluted in 50 mM Na-acetate (pH 5.5), and acetylated with 10 μl of mixture of triethylamine and acetic anhydride (2:1 vol:vol). After acetylation, cAMP antiserum (100 μl) is added from a stock solution (1:4000) made in PBS (pH 7.4), 5 mM EDTA and 1% normal rabbit serum. The tracer is diluted in PBS (pH 7.4) with 0.1% BSA, and added (20,000 cpm/tube). The assay is incubated at 4° C. overnight. The bound tracer is precipitated by adding 100 μl of goat anti-rabbit antiserum (1:20 in PBS) and 1 ml of 7% polyethyleneglycol (MW 5000-6000), centrifuging at 2000 rpm for 30 min. at 4° C. The supernatant is removed and the bound radioactivity is counted in a gamma-counter (Micromedic). To compute the cAMP data, logit calculations were performed in Excel spreadsheets. Typically, the assay sensitivity is 0.1 fmol/tube, and the standard concentration that displaces 50% of tracer is 5 fmol/tube.
All calculations were performed using Microsoft Excel. Nonlinear regression analysis of cAMP stimulation data was performed using parameters, defined as the Minimum, Maximum, Emax, midpoint (EC50), and slope of the response curve. The predicted response (yp) for a given dose (x) of peptide was calculated using the following equation: yp=Min+[(Max−Min)/(1+(EC50/x)^slope)]. […]

[2] = LLC-PK1 cells expressing PTH-2 receptor, cAMP

Row | Molecule | Emax [1] | EC50 Log M (hPTH-2 Receptor; cAMP) | Emax (hPTH-2 Receptor) | EC50 [1] | stimulation of the PTH-2 receptor (in words) (hPTH-2 Receptor; [2]) | potency relative to PTH(1-34) (hPTH-2 Receptor; [2])
1 | AVAEIQLMHAR-NH2 [compound 6, AlaValAlaGluIleGlnLeuMetHisAlaArg-amide] | 377 ± 23 picomole/well | weakly | – | – | – | –
2 | AVAEIQLMHARAKHLNSMERVEWLRKKLQDVHNY-NH2 [Peptide #7] | 395 ± 1 picomole/well | – | 677 picomole/well | – | – | –
3 | CCCC[C@H](NC(=O)[C@H](CCCNC(=N)N)NC(=O)[C@H](CCC(=O)O)NC(=O)[C@@H](NC(=O)[C@H](CO)NC(=O)[C@H](C)NC(=O)[C@H](CC(C)C)NC(=O)[C@H](Cc1c[nH]cn1)NC(=O)[C@H](CCCCN)NC(=O)CNC(=O)[C@H](CC(C)C)NC(=O)[C@H](CC(N)=O)NC(=O)[C@H](Cc1c[nH]cn1)NC(=O)[C@H](CCCC)NC(=O)[C@H](CC(C)C)NC(=O)[C@H](CCC(N)=O)NC(=O)[C@@H](NC(=O)[C@H](CCC(=O)O)NC(=O)[C@H](CO)NC(=O)[C@@H](NC(=O)[C@H](C)N)C(C)C)[C@@H](C)CC)C(C)C)C(=O)N[C@@H](CCC(N)=O)C(=O)N[C@@H](Cc1c[nH]c2ccccc12)C(=O)N[C@@H](CC(C)C)C(=O)N[C@@H](CCCNC(=N)N)C(=O)N[C@@H](CCCCN)C(=O)N[C@@H](CCCCN)C(=O)N[C@@H](CC(C)C)C(=O)N[C@@H](CCC(N)=O)C(=O)N[C@@H](CC(=O)O)C(=O)N[C@H](C(=O)N[C@@H](Cc1c[nH]cn1)C(=O)N[C@@H](CC(N)=O)C(=O)N[C@@H](Cc1ccc(O)cc1)C(N)=O)C(C)C [[Nle8, 21, Y34]rPTH(1-34), [Nle^8,21,Tyr^34]-rPTH(1-34)NH2, reference compound] | 364 ± 6 picomole/well | – | 744 ± 48 picomole/well | 0.316 nM | – | –
4 | AVSEIQLMHNLGKH-NH2 [native rPTH(1-14), AVSEIQLMHNLGKH, reference compound] | 376 ± 23 picomole/well | inactive | – | – | did not stimulate | –
5 | AVAEIQLMHARAKH-NH2 [Peptide #1, AlaValAlaGluIleGlnLeuMetHisAlaArgAlaLysHis-amide] | 395 ± 1 picomole/well | – | 292 ± 100 picomole/well | – | active | four to five orders of magnitude weaker

Source: US8568736B2, “Polypeptide derivatives of parathyroid hormone (PTH)” (The General Hospital Corporation, priority 1999, dated 2013)
